The results in this text go back to patent publication US10322115B2, “Amelioration of neural deficits associated with diabetes” (Neuralstem, Inc., priority 2016, dated 2019).

Test [1] relates to diabetic mice. Description: Paw thermal response latency (paw response to heat) in STZ Type I diabetes model. Format: in vivo, Swiss Webster mice. The protocol: (§1) Adult female Swiss Webster mice (20-25 grams) were used in the study. They were maintained in a room at 65-82° F. and relative humidity of 30-70% illuminated with fluorescent lighting on a 12 hour light/dark cycle. The animals were maintained 2-3 per cage with free access to dry food and municipal water. Diabetes was induced following an overnight fast by injection of streptozotocin (STZ) (90 mg/kg ip in 0.9% sterile saline) on two consecutive days. Hyperglycemia was confirmed 4 days later in a sample of blood obtained by tail prick using a strip operated reflectance meter. Animals were observed daily and weighed weekly during the study period.
(§2) Test compounds were evaluated, with treatment begun immediately after onset of diabetes (Part A) or after 7-8 weeks of diabetes in Part B. Each group started with 10 animals per group to allow identification of differences in nerve conduction, paw thermal latency and intra-epidermal nerve fiber (IENF) density between control and diabetic mice, assuming the routinely observed 20-40% difference between groups and measurement coefficients of variation of 10-20%.
(§3) PART A (onset) • Control+vehicle • Diabetic+vehicle • Diabetic+insulin (by implanted pellet) • Diabetic+NSI-158 • Diabetic+NSI-189 • Diabetic+NSI-190
(§4) PART B (7-8 weeks) • Control+vehicle • Diabetic+vehicle • Diabetic+NSI-150 • Diabetic+NSI-182 • Diabetic+NSI-183 • Diabetic+NSI-189
(§5) Insulin was supplied by an implanted insulin pellet replaced monthly as needed (LinBit™, LinShin, Canada) and the test compounds were supplied by oral gavage. The following measurements were made 24 hours after delivery of test compound: • Body weight: Weekly from onset of diabetes; • Blood glucose: At onset of diabetes and monthly thereafter; • MNCV (large motor fiber function): Before onset of diabetes and monthly thereafter; • Paw tactile response threshold (large sensory fiber function) by manual von Frey filament: Monthly from onset of diabetes; • Paw thermal response latency (small sensory fiber): Monthly from onset of diabetes; • Corneal nerve density (small sensory fiber structure): Images were collected before onset of diabetes and monthly thereafter; • Barnes maze performance (learning and memory): After 10 weeks of diabetes and at study termination; and • Object recognition test (memory): After 10 weeks of diabetes and at study termination.
(§6) The various procedures set forth above are those described in the art as follows: • Jolivalt, C. G., et al., Exp. Neurol. (2010) 223:422-431; • Jolivalt, C. G., et al., Diabetes Obes. Metab. (2011) 13:990-1000; • Jolivalt, C. G., et al., Neuroscience (2012) 202:405-412; and • Chen, D. K., et al., J. Peripher. Nerv. Syst. (2013) 18:306-315.

Test [2] has as its system diabetic mice. Description: Corneal nerve density (small fiber pathology) in STZ Type I diabetes model. Format: in vivo, Swiss Webster mice. Here is the method:
as §1, §2, §3, §4, §5, §6

For test [3], the system named is diabetic mice. Description: Paw tactile response threshold by manual von Frey filament (tactile allodynia) in STZ Type I diabetes model. Format: in vivo, Swiss Webster mice. Here is the method: as §1, §2, §3, §4, §5, §6
The test system of test [4] is diabetic mice. Description: MNCV (large motor fiber function) in STZ Type I diabetes model. Format: in vivo, Swiss Webster mice. Here is the method:
as §1, §2, §3, §4, §5, §6

Test [5] concerns diabetic mice. Description: Nerve density in the sub-epidermal nerve plexus in STZ Type I diabetes model. Format: in vivo, Swiss Webster mice. Here is the method:
as §1, §2, §3, §4, §5, §6

Test [6] has as its system diabetic mice. Nature of the test: Barnes maze test (learning and memory) in STZ Type I diabetes model. It is filed as in vivo, Swiss Webster mice. Conditions: for Barnes maze long-term retention / Barnes maze other parameters (initial acquisition, reinforced learning, short-term retention): Part A (treatment from onset). The protocol: as §1, §2, §3, §4, §5, §6
The test system of test [7] is diabetic mice. Nature of the test: IENF density in isolated paw skin tissue in STZ Type I diabetes model. Format: in vivo, Swiss Webster mice. The protocol: as §1, §2, §3, §4
Paw skin tissue was evaluated for IENF density in some cases.
as §6

Test [8] has as its system db/db (BKS.Cg-Dock7^m+/+Lepr^db/J) mice. Nature of the test: Tactile allodynia in Type II diabetes model. It is filed as in vivo. Conditions: after 17-22 weeks of treatment. The source says:
(§7) Type II diabetes was modeled by db/db (BKS.Cg-Dock7^m+/+Lepr^db/J) mice. These mice were maintained in a manner similar to that set forth in Example 1.

Test [9] shares this test system. Description: Thermal hypoalgesia in Type II diabetes model. Format: in vivo. Conditions: after 17-22 weeks of treatment.
Source text: as §7

Test [10] has the same test system. Description: MNCV in Type II diabetes model. Conditions: after 17-22 weeks of treatment. Format: in vivo.
Source text: as §7

For test [11], the system named is diabetic mice. Description: Object recognition test (memory) in STZ Type I diabetes model. It is filed as in vivo, Swiss Webster mice. Conditions: Part A (treatment from onset), weeks 10 and 16. The protocol:
as §1, §2, §3
PART B (7-8 weeks) • Control+vehicle • Diabetic+vehicle • Diabetic+NSI-150 • Diabetic+NSI-182 • Diabetic+NSI-183 • Diabetic+NSI-189 […]

In test [12] the test system is diabetic mice. Nature of the test: Systemic indices of diabetes (body weight, blood glucose, HbA1c) in STZ Type I diabetes model. Conditions: Part A, treatment from the outset. It is filed as in vivo, Swiss Webster mice. The protocol: as §1, §2, §3, §4
Insulin was supplied by an implanted insulin pellet replaced monthly as needed (LinBit™, LinShin, Canada) and the test compounds were supplied by oral gavage. […]

Setting [13] is: Part B (treatment after 7-8 weeks of diabetes).
Setting [14] is: Part A (treatment from onset of diabetes), end of study period.
Setting [15] is: Part A (treatment from onset), distal regions of small sensory fibers.
Setting [16] is: Part A (treatment from onset), measured 24 hours after the last treatment.
Setting [17] is: Part A (treatment from onset), more proximal regions.

On to `C=CCNC(=O)c1cccnc1NCc1ccccc1OC` [NSI-150], for which the paw thermal hypoalgesia result in the test with diabetic mice [1] (setting [13]) is “did not”. Also, in the test on diabetic mice [2] (setting [13]), the “loss of corneal nerve density in the stroma” value (“loss … in the stroma” below) is listed as “no protective effect”. Besides, the paw tactile allodynia result in the test on diabetic mice [3] (setting [13]) is listed as “did not”.
For `NC(=O)C1CCCN1C(=O)c1cccnc1NCC1CCCCC1` (centres unmarked) [NSI-158], in the test on diabetic mice [4] (setting [14]), the MNCV slowing entry is “mild attenuation of MNCV slowing”. Also, in the test on diabetic mice [1] (Part A (treatment from onset)), the paw thermal hypoalgesia result is given as “prevented paw thermal hypoalgesia”. The “reduction of nerve density in the sub-epidermal nerve plexus” value (from here on “reduction of nerve density”) in the test on diabetic mice [5] (Part A (treatment from onset)) was “attenuated”. Moreover, in the test with diabetic mice [6], the “Barnes maze long-term retention” value is listed as “improved long-term retention” and the “Barnes maze other parameters (initial acquisition, reinforced learning, short-term retention)” value (“Barnes maze other parameters” below) is “without altering the other parameters”. Also, the “loss of corneal nerve density in Bowman's layer” value (from here on “loss … in Bowman's layer”) with diabetic mice [2] (setting [15]) is on record as “no protective effect”. In addition, the “reduction of IENF density in isolated tissue” value (shortened to “reduction of IENF density”) in the test on diabetic mice [7] (Part A (treatment from onset)) is “attenuated”. In the test on diabetic mice [3] (setting [16]), the paw tactile allodynia result is “attenuated tactile allodynia”.
`O=C(NCc1nc2ccccn2c1NCC1CCCO1)Oc1ccccc1` (centres unmarked) [NSI-182]: the paw thermal hypoalgesia entry in the test on diabetic mice [1] (setting [13]) is recorded as “did not”. In addition, in the test on diabetic mice [2] (setting [13]), the “loss … in Bowman's layer” value is given as “protective” and the “loss … in the stroma” value was “no protective effect”. In addition, the paw tactile allodynia entry in the test on diabetic mice [3] (setting [13]) is on record as “did not”.
Consider `O=C(COc1ccccc1)NCc1nc2ccccn2c1NCC1CCCO1` (centres unmarked) [NSI-183], for which the paw thermal hypoalgesia result in the test on diabetic mice [1] (setting [13]) is recorded as “did not”. Also, in the test on diabetic mice [2] (setting [13]), the “loss … in Bowman's layer” value is reported as “protective” and the “loss … in the stroma” value was “no protective effect”. Further, in the test on diabetic mice [3] (setting [13]), the paw tactile allodynia result is given as “did not”.
For `CC(C)CCNc1ncccc1C(=O)N1CCN(Cc2ccccc2)CC1` [NSI-189], the MNCV slowing entry was “mild attenuation of MNCV slowing” with diabetic mice [4] (setting [14]) and “partially reversed MNCV slowing” with diabetic mice [4] (setting [13]). Further, the paw thermal hypoalgesia result with diabetic mice [1] (Part A (treatment from onset)) is given as “prevented paw thermal hypoalgesia”; with diabetic mice [1] (setting [13]), “prevented progression of paw thermal hypoalgesia”. Moreover, the “progressive development of tactile allodynia” value in [8] is “significantly reversed”. For the same molecule, the “progressive development of thermal hypoalgesia” value in test [9] is given as “significantly reversed”. The figures for the “reduction of nerve density” value with diabetic mice [5] (Part A (treatment from onset)) and in the test with diabetic mice [5] (setting [13]) were “attenuated” and “protective”, respectively. In addition, the “progressive development of MNCV slowing” value in test [10] is “significantly reversed”. The “Barnes maze long-term retention” value in the test on diabetic mice [6] is on record as “improved long-term retention”. In the test with diabetic mice [6], the “Barnes maze other parameters” value was “without altering the other parameters”. The “loss … in Bowman's layer” value in the test on diabetic mice [2] (setting [15]) was “attenuated the loss”; with diabetic mice [2] (setting [13]) it was “protective”. Further, the entries for the “loss … in the stroma” value in the test with diabetic mice [2] (setting [17]) and with diabetic mice [2] (setting [13]) were “attenuated this loss” and “protective”, respectively. The “reduction of IENF density” value was “attenuated” in the test on diabetic mice [7] (Part A (treatment from onset)) and “reversed” in the test with diabetic mice [7] (setting [13]). Moreover, the paw tactile allodynia result with diabetic mice [3] (setting [16]) is given as “attenuated tactile allodynia”; with diabetic mice [3] (setting [13]), “partially reversed paw tactile allodynia”.
Take `CCN(CCNC(=O)c1cccnc1NCCC(C)C)Cc1cccnc1` [NSI-190]: the MNCV slowing result in the test with diabetic mice [4] (setting [14]) was “mild attenuation of MNCV slowing”. In addition, the paw thermal hypoalgesia result with diabetic mice [1] (Part A (treatment from onset)) is recorded as “prevented paw thermal hypoalgesia”. The “object recognition: impaired short-term memory” value with diabetic mice [11] is “prevented this memory loss”. Moreover, the “reduction of nerve density” value with diabetic mice [5] (Part A (treatment from onset)) is listed as “attenuated”. Besides, in the test with diabetic mice [6], the “Barnes maze long-term retention” value was “improved long-term retention” and the “Barnes maze other parameters” value was “without altering the other parameters”. The “loss … in Bowman's layer” value in the test with diabetic mice [2] (setting [15]) is “no protective effect”. Besides, the “loss … in the stroma” value in the test on diabetic mice [2] (setting [17]) is “attenuated this loss”. Also, in the test with diabetic mice [3] (setting [16]), the paw tactile allodynia entry was “attenuated tactile allodynia”.
As to insulin [reference compound], the MNCV slowing result with diabetic mice [4] (setting [14]) was “prevented”. Further, in the test on diabetic mice [1] (Part A (treatment from onset)), the paw thermal hypoalgesia entry was “prevents this”. The “object recognition: impaired short-term memory” value in the test with diabetic mice [11] is “not prevented”. In addition, in the test on diabetic mice [12], the hyperglycemia entry is “reduced hyperglycemia” and the weight gain entry is reported as “partially restored weight gain”. In addition, the HbA1c levels entry in the test with diabetic mice [12] (terminal) is “reduced HbA1c levels”. The “reduction of nerve density” value in the test on diabetic mice [5] (Part A (treatment from onset)) is “prevented”. Besides, in the test on diabetic mice [6] (Part A, insulin pellet), the “Barnes maze impairments (initial acquisition and long-term retention)” value is “prevented all of this”. Moreover, the “loss … in Bowman's layer” value in the test on diabetic mice [2] (setting [15]) was “prevented”. Further, in the test with diabetic mice [2] (setting [17]), the “loss … in the stroma” value is “prevented”. Further, in the test on diabetic mice [7] (Part A (treatment from onset)), the “reduction of IENF density” value was “prevented”. For the same molecule, the paw tactile allodynia entry in the test with diabetic mice [3] (setting [16]) is on record as “attenuated”.
